Laboratory results: patent publication US20120276196A1, “Pharmaceutical Compositions of a Neuroactive Steroid and Methods of Use Thereof” (Euro-Celtique S.A., priority 2005, published 2012)

Assays:
[1] = human, in vivo, po
Source text: (§1) The study is designed as an escalating single-dose, randomized, double-blind, placebo-controlled study in healthy adult male subjects.
(§2) The subjects will be monitored closely for safety and be tested using various pharmacodynamic measures during this phase. E.g. blood and urine samples will be collected for determination of the concentration of the active agent and its metabolites.
(§3) Pharmacokinetic samples will be analyzed after each cohort to examine the extent of drug exposure. Blood samples will be collected for determination of the active agent, its metabolites, and related substances at the following time-points: 0.25, 0.5, 1.0, 1.5, 2, 3, 4, 5, 6, 8, 10,12, 24, 30, 36, 48, 60, 72, 84 hr after dosing, and at End of Study. Up to 5 additional post-dosing blood sampling(s) may be performed and/or the timing of pharmacokinetic parameters draws may change if indicated after the analysis of blood samples from previous cohort(s). Samples will be collected after vital signs, pulse oximetry, and ECG are obtained.

clinical = details: male, human, in vivo
Source text: as §1, §2, §3

[2] = escalating single-dose, randomized, double blind, placebo-controlled pharmacokinetic study, oral suspension, healthy male subjects; details: human, plasma
Source text: as §1, §2, §3

COC[C@@]1(O)CC[C@]2(C)C3CC[C@@]4(C)C(CC[C@@H]4C(=O)Cn4ccnc4)C3CC[C@H]2C1 (stereo partly drawn) [3α-hydroxy-3β-methoxymethyl-21-(1′-imidazolyl)-5α-pregnan-20-one]
Cmax levels between subjects [1]: variable
Cmax values versus dose [1]: greater than dose-proportional
Tmax (clinical): 1.5 to 5 h
Cmax (clinical; 1 mg): 1 to 1.8 ng/mL
Cmax (clinical; 3 mg): 4 to 8 ng/mL
Cmax (clinical; 10 mg): 16.9 to 46.3 ng/mL
Cmax (clinical; 30 mg): 95.6 to 154 ng/mL
Cmax (clinical; 60 mg): 218 to 479 ng/mL
Tmax (clinical; po): 1 to 3 h
half-life (clinical; po): ~720 min
Cmax (clinical; po, 1 mg): 1.3 ng/mL
Tmax (clinical; po, 1 mg): 3.1 h
AUC(0-t) (clinical; po, 1 mg, AUC (0-24)): 16.9 ng·h/mL
AUC(0-t) (clinical; po, 1 mg, AUC (0-last)): 22.4 ng·h/mL
Cmax (clinical; po, 3 mg): 5.7 ng/mL
Tmax (clinical; po, 3 mg): 2.8 h
half-life (clinical; po, 3 mg): 528 min
AUC(0-t) (clinical; po, 3 mg, AUC (0-24)): 54.6 ng·h/mL
AUC(0-t) (clinical; po, 3 mg, AUC (0-last)): 65.6 ng·h/mL
Cmax (clinical; po, 10 mg): 26.5 ng/mL
Tmax (clinical; po, 10 mg): 1.7 h
AUC(0-t) (clinical; po, 10 mg, AUC (0-24)): 213 ng·h/mL
AUC(0-t) (clinical; po, 10 mg, AUC (0-last)): 254 ng·h/mL
Cmax (clinical; po, 30 mg): 120 ng/mL
Tmax (clinical; po, 30 mg): 2.1 h
AUC(0-t) (clinical; po, 30 mg, AUC (0-24)): 952 ng·h/mL
AUC(0-t) (clinical; po, 30 mg, AUC (0-last)): 1120 ng·h/mL
Cmax (clinical; po, 60 mg): 330 ng/mL
Tmax (clinical; po, 60 mg): 1.8 h
AUC(0-t) (clinical; po, 60 mg, AUC (0-24)): 2330 ng·h/mL
AUC(0-t) (clinical; po, 60 mg, AUC (0-last)): 2610 ng·h/mL
half-life ([2]; 1 mg): 828 min
half-life ([2]; 10 mg): 786 min
half-life ([2]; 30 mg): 786 min
half-life ([2]; 60 mg): 750 min
